Source: patent US4892875A, “Substituted heterocyclylalkyl esters of 1,4-dihydropyridine-3,5-dicarboxylic acids” (Takeda Chemical Industries, Ltd., priority 1982, dated 1990)

Assay: Acute toxicity in male and female Wistar rats
Settings: in vivo; oral; male rat; observed 7 days
Description: 2-(4-Benzhydryl-1-piperazinyl)ethyl methyl 2,6-dimethyl-4-(3-nitrophenyl)-1,4-dihydropyridine-3,5-dicarboxylate dihydrochloride was suspended in a 5% solution of gum arabic and orally administered to male and female Wistar rats aged 5 weeks (body weight 105 to 139 g) in a dose of 62.5, 125, 250, 500 and 1000 mg/kg (in groups of 4 to 8) and each animal so treated was observed over a period of 7 days.

In the case of `COC(=O)C1=C(C)NC(C)=C(C(=O)OCCN2CCN(C(c3ccccc3)c3ccccc3)CC2)C1c1cccc([N+](=O)[O-])c1.Cl.Cl` (stereo not shown) [2-(4-Benzhydryl-1-piperazinyl)ethyl methyl 2,6-dimethyl-4-(3-nitrophenyl)-1,4-dihydropyridine-3,5-dicarboxylate dihydrochloride], the LD50 at 168 h is reported as 250 to 500 mg/kg.
